Measured values reported in the Kinase Knowledgebase extract (Sharma et al. 2016).

How the values were obtained:
MAPK14 (human) = MAPK14 (human) (UniProt Q16539); experiment: In vitro Inhibition of TNF-alpha Production in PBMC Cells
MAPK14 (BALB/cJ mice) = experiment: In vivo Inhibition of LPS-induced TNF-alpha Production; conditions: dose or concentration not given here

Chain of MAPK14 (human) (Q16539 whole entry, looked up): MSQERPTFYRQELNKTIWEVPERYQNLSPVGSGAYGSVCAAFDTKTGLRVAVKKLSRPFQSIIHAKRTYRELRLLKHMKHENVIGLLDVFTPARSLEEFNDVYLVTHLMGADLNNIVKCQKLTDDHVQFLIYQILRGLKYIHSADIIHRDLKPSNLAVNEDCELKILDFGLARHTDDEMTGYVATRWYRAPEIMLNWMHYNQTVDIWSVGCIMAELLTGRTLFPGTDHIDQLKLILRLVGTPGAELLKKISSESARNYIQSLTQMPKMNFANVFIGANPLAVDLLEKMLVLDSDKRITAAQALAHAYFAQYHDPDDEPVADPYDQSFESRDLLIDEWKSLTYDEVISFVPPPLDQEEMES

| Structure (SMILES) | IC50 (MAPK14 (human)) [nM] | inhibition (MAPK14 (BALB/cJ mice)) [%] |
| --- | --- | --- |
| CCCc1[nH]cc(-c2ccc(F)cc2)c1-c1ccnc(N[C@@H](C)COC)n1 | 86 | -35 |
| CCOC(=O)c1[nH]cc(-c2ccncc2)c1-c1ccc(C)cc1 | 136 | -218 |
| Cn1c(C#N)c(-c2ccc(F)cc2)c(-c2ccncc2)c1N1CCNCC1 | 18 | 67 |
| CCOC(=O)c1c(-c2ccc(F)cc2)c(-c2ccncc2)c(N2CCNCC2)n1C | 16 | 79 |
| OCc1c(-c2ccc(F)cc2)c(-c2ccncc2)cn1CCN1CCOCC1 | 277 | -50 |
| CCOC(=O)c1[nH]cc(-c2ccncc2)c1-c1cccc(C(F)(F)F)c1 | 96 | -8 |
| COC(=O)c1c(-c2ccc(F)cc2)c(-c2ccncc2)c(NCc2ccncc2)n1C | 145 | -22 |
| COc1ccc(CNCc2[nH]cc(-c3ccncc3)c2-c2ccc(F)cc2)cc1 | 190 | -30 |
| COC(=O)C1CCn2c(NCCN3CCOCC3)c(-c3ccncc3)c(-c3ccc(F)cc3)c2C1=O (stereo not given) | 77 | 71 |
| Fc1ccc(-c2cn3c(c2-c2ccncc2)CN(Cc2ccccc2)CC3)cc1 | 11 | -6 |
| CN(Cc1ccccc1)Cc1[nH]cc(-c2ccc(F)cc2)c1-c1ccncc1 | 91 | 37 |
| Cn1cc(-c2ccncc2)c(-c2ccc(F)cc2)c1-c1cnco1 | 59 | 53 |
| COC(=O)c1c(-c2ccc(F)cc2)c(-c2ccncc2)cn1C(=O)OC | 23 | -22 |
| COC(=O)c1c(-c2ccc(F)cc2)c(-c2ccncc2)c(NCCN(C)C)n1C | 98 | -43 |
| COC(=O)c1c(-c2ccc(F)cc2)c(-c2ccncc2)c(C2=CCNCC2)n1C | 72 | 96 |
| COC(=O)c1c(-c2ccncc2)c(-c2ccc(F)cc2)cn1C | 55 | -56 |
| COCC#Cc1c(-c2ccc(F)cc2)c(-c2ccncc2)c(C(=O)OC)n1C | 443 | -5 |
| CCOC(=O)c1c(-c2ccc(C)cc2)c(-c2ccncc2)c(Br)n1C | 736 | -76 |
| COC(=O)c1c(-c2ccc(F)cc2)c(-c2ccncc2)c(N=C(c2ccccc2)c2ccccc2)n1C | 52 | -49 |
| CCN1CCN(c2c(-c3ccncc3)c(-c3ccc(F)cc3)c(C(=O)OC)n2C)CC1 | 135 | 67.8 |
| COC(=O)c1c(-c2ccc(F)cc2)c(-c2ccncc2)c(N=CN(C)C)n1C | 5 | 6 |

| Structure (SMILES) | IC50 (MAPK14 (human)) [nM] | inhibition (MAPK14 (BALB/cJ mice)) [%] |
| --- | --- | --- |
| CCOC(=O)c1c(-c2cccc(C(F)(F)F)c2)c(-c2ccncc2)c(N2CCNCC2)n1C | 21 | 83 |
| COC(=O)c1c(-c2ccc(F)cc2)c(-c2ccncc2)c(-c2cccc(NC(C)=O)c2)n1C | 2 | 59 |
| COC(=O)c1c(-c2ccncc2)c(-c2ccc(F)cc2)c(NCCN2CCOCC2)n1C | 10000 | 91 |
| CN(C)CCn1cc(-c2ccncc2)c(-c2ccc(F)cc2)c1CO | 852 | 20 |
| CCn1cc(-c2ccncc2)c(-c2ccc(F)cc2)c1C(=O)OC | 108 | 53 |
| COC(=O)c1c(-c2ccc(F)cc2)c(-c2ccncc2)c(NCc2cccc(OC)c2)n1C | 407 | 63 |
| CN(CCO)Cc1[nH]cc(-c2ccc(F)cc2)c1-c1ccncc1 | 3 | -8 |
| Fc1ccc(-c2cn3c(c2-c2ccncc2)CNCC3)cc1 | 208 | 71 |
| CCOC(=O)c1c(-c2cc(F)cc(F)c2)c(-c2ccncc2)c(N2CCNCC2)n1C | 93 | 75 |
| CCOC(=O)c1c(-c2cc(F)cc(F)c2)c(-c2ccncc2)cn1C | 33 | -31 |
| CC(=O)c1c(-c2ccc(F)cc2)c(-c2ccncc2)c(N2CCN(C)CC2)n1C | 370 | 40 |
| Cn1c(Br)c(-c2ccncc2)c(-c2ccc(F)cc2)c1C#N | 625 | 22 |
| COC(=O)c1c(-c2ccc(F)cc2)c(-c2ccncc2)c(N2CCN(C3CCCC3)CC2)n1C | 139 | 48.6 |
| CNC(=O)c1c(-c2ccc(F)cc2)c(-c2ccncc2)c(N2CCNCC2)n1C | 106 | -7 |
| COC(=O)c1c(-c2ccc(F)cc2)c(-c2ccncc2)c(N2CCN(CC3CC3)CC2)n1C | 269 | 66.3 |
| CCOC(=O)c1c(-c2ccc(C)cc2)c(-c2ccncc2)c(N2CCNCC2)n1C | 60 | 79 |
| COC(=O)c1c(-c2ccc(F)cc2)c(-c2ccncc2)c(-c2ccc(N(C)C)cc2)n1C | 120 | -22 |
| Fc1ccc(-c2c[nH]c(CN3CCNCC3)c2-c2ccncc2)cc1 | 63 | -41 |
| OCc1[nH]cc(-c2ccc(F)cc2)c1-c1ccncc1 | 101 | -72 |
| C[C@H](Nc1nccc(-c2cn(CCN3CCOCC3)cc2-c2ccc(F)cc2)n1)c1ccccc1 | 4 | -21 |

Continued by falling IC50 (MAPK14 (human)), values first:

| IC50 (MAPK14 (human)) [nM] | Structure (SMILES) | inhibition (MAPK14 (BALB/cJ mice)) [%] |
| --- | --- | --- |
| 5860 | COC(=O)c1c(-c2ccc(F)cc2)c(-c2ccncc2)c(N2CCN(S(C)(=O)=O)CC2)n1C | -29 |
| 2920 | CCNC(=O)N1CCN(c2c(-c3ccncc3)c(-c3ccc(F)cc3)c(C(=O)OC)n2C)CC1 | -38 |
| 2560 | O=C1CCCn2c(NCCN3CCOCC3)c(-c3ccncc3)c(-c3ccc(F)cc3)c21 | 51 |
| 1560 | COC(=O)c1c(-c2ccc(F)cc2)c(-c2ccncc2)c(Nc2ccc(N3CCOCC3)cc2)n1C | 29 |
| 1530 | COC(=O)c1c(-c2ccc(F)cc2)c(-c2ccncc2)c(N2CCN(C(C)=O)CC2)n1C | 57 |
| 1020 | COC(=O)c1c(-c2ccncc2)c(-c2ccc(F)cc2)c(NCCc2ccccc2)n1C | 58 |
| 969 | COC(=O)c1c(-c2ccc(F)cc2)c(-c2ccncc2)c(NCCN2CCCC2)n1CCN1CCOCC1 | 23 |
| 894 | COC(=O)c1c(-c2ccncc2)c(-c2ccc(F)cc2)c(C#CCCO)n1C | 30 |
| 819 | O=C1CCn2c(Br)c(-c3ccncc3)c(-c3ccc(F)cc3)c21 | 31 |
| 756 | CCOC(=O)c1c(-c2ccc(F)cc2)c(-c2ccncc2)c(CCCN2CCOCC2)n1C | 34 |
| 560 | CCOC(=O)c1[nH]cc(-c2ccncc2)c1-c1ccc(F)c(F)c1 | -32 |
| 420 | Cn1c(C(=O)OC(C)(C)C)c(-c2ccc(F)cc2)c(-c2ccncc2)c1N1CCNCC1 | 25 |
| 401 | CCN1C(=O)c2c(-c3ccncc3)c(-c3ccc(F)cc3)cn2C1=O | 72 |
| 326 | COC(=O)C1CCn2cc(-c3ccncc3)c(-c3ccc(F)cc3)c2C1=O (stereo not given) | -9 |
| 248 | CCOC(=O)c1c(-c2ccc(F)cc2)c(-c2ccncc2)c(CCCOCc2ccccc2)n1C | 51 |
| 237 | COC(=O)c1c(-c2ccc(F)cc2)c(-c2ccncc2)c(N2CCC(N)C2)n1C (stereo not given) | 25 |
| 209 | CCNC(=O)c1[nH]cc(-c2ccc(F)cc2)c1-c1ccncc1 | -24 |
| 194 | COC(=O)c1c(-c2ccc(F)cc2)c(-c2ccncc2)cn1C(C)=O | -32.1 |
| 169 | Cn1cc(-c2ccc(F)cc2)c(-c2ccncc2)c1CO | 65 |
| 166 | COC(=O)c1c(-c2ccc(F)cc2)c(-c2ccncc2)c(N2CCc3ccccc3C2)n1C | 32 |

| IC50 (MAPK14 (human)) [nM] | Structure (SMILES) | inhibition (MAPK14 (BALB/cJ mice)) [%] |
| --- | --- | --- |
| 149 | CCOC(=O)c1[nH]cc(-c2ccncc2)c1-c1ccccc1 | 58 |
| 148 | CCCc1c(-c2ccnc(SC)n2)c(-c2ccc(F)cc2)cn1CCCN(C)C | -37 |
| 92 | COC(=O)c1c(-c2ccc(F)cc2)c(-c2ccncc2)c(NCCN2CCCCC2)n1C | -36 |
| 74 | Fc1ccc(-c2c[nH]c(CNCc3ccncc3)c2-c2ccncc2)cc1 | 47 |
| 72 | CON(C)C(=O)c1c(-c2ccc(F)cc2)c(-c2ccncc2)c(N2CCN(C(=O)OC(C)(C)C)CC2)n1C | 45 |
| 69 | COC(=O)c1c(-c2cccc(F)c2)c(-c2ccncc2)c(N2CCNCC2)n1C | 49 |
| 67 | CCC(=O)c1c(-c2ccc(F)cc2)c(-c2ccncc2)c(N2CCNCC2)n1C | 32 |
| 57 | COC(=O)c1c(-c2ccc(F)cc2)c(-c2ccncc2)c(Nc2cccnc2)n1C | -10.5 |
| 34 | C=CC#Cc1c(-c2ccc(F)cc2)c(-c2ccncc2)c(C(=O)OC)n1C | -20 |
| 32 | COC(=O)c1c(-c2ccncc2)c(-c2ccc(F)cc2)c(C#CCCN2CCOCC2)n1C | -4 |
| 29 | COC(=O)C1Cn2cc(-c3ccncc3)c(-c3ccc(F)cc3)c2C1=O (stereo not given) | 44.7 |
| 27 | Cn1cc(-c2ccncc2)c(-c2ccc(F)cc2)c1CNC(=O)Nc1ccccc1 | 82 |
| 15 | Cn1cc(-c2ccc(F)cc2)c(-c2ccncc2)c1N1CCNCC1 | 75 |
| 14 | O=C(NCc1ccccc1)c1[nH]cc(-c2ccc(F)cc2)c1-c1ccncc1 | -60 |
| 10 | CCCc1[nH]cc(-c2ccc(F)cc2)c1-c1ccnc(N[C@@H](C)c2ccccc2)n1 | -19 |
| 8 | COC(=O)c1c(-c2ccc(F)cc2)c(-c2ccncc2)c(N2CCN(c3cccc(C(C)=O)c3)CC2)n1C | -21 |
| 7.7 | COC(=O)c1c(-c2ccc(F)cc2)c(-c2ccncc2)c(C#CCN2CCN(C)CC2)n1C | 57 |
| 5 | COC(=O)CN1CCN(c2c(-c3ccncc3)c(-c3ccc(F)cc3)c(C(=O)OC)n2C)CC1 | 26 |
| 1 | CCCc1c(-c2ccnc(N[C@@H](C)COC)n2)c(-c2ccc(F)cc2)cn1CCN1CCOCC1 | -1 |
